The results in this text go back to patent US20140309210A1, “INDAZOLE COMPOUNDS, COMPOSITIONS AND METHODS OF USE THEREOF” (Genentech, Inc., priority 2011, published 2014).

pKi: −log10 of the molar value.

The first experiment addresses T1, purified ITK (Invitrogen PV3875) (Homo sapiens, UniProt Q08881).
T1 construct: purchased Invitrogen PV3875
T1 sequence (Q08881 1-620): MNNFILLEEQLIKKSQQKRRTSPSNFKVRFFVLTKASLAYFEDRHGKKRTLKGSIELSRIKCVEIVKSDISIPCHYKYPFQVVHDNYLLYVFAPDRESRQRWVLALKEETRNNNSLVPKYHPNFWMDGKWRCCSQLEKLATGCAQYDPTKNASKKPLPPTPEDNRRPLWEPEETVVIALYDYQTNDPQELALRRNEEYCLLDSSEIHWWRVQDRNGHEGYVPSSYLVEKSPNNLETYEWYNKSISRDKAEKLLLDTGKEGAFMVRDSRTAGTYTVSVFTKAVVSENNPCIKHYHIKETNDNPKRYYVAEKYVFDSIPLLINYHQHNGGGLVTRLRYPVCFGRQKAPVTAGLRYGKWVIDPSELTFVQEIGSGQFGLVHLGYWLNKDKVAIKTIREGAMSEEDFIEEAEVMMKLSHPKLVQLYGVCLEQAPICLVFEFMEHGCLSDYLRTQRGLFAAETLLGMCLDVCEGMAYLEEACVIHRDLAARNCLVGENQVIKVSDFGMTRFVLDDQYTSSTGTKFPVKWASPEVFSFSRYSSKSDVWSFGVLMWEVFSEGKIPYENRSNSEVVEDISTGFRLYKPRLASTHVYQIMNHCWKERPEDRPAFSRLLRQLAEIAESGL
The experiment can be described thus: ITK peptide phosphorylation assay (Caliper LabChip or LCMS). The class given is biochemical. As to conditions: Table 2, Examples 1-140, class symbols. Here is the method: The ability of purified ITK (Invitrogen PV3875) to catalyze peptide phosphorylation is monitored using a Caliper LabChip 3000 microfluidic unit (Caliper assay) or by liquid chromatography-mass spectrometry (LCMS) using a Waters Acquity system (LCMS assay). […] Reactions are quenched by the addition of 2,2′,2″,2′″-(ethane-1,2-diyldinitrilo)tetraacetic acid (50 mM final). Non-phosphorylated substrate and phosphorylated product peptides are separated and quantified using a Caliper LabChip 3000 instrument. […] Reactions are quenched by the addition of trichloroacetic acid (5% v/v final). Non-phosphorylated substrate and phosphorylated product peptides are separated by ultra performance LC and detected by a coupled triple quadrupole MS device applying multiple reaction monitoring (MRM) for quantification. The area of the MRM-extracted mass signal is used to assess the inhibition by test compounds. Equilibrium dissociation constant (Ki) values for ITK inhibitors are calculated from plots of activity vs. inhibitor concentration using Morrison's quadratic equation that accounts for the potential of tight binding, and by also applying the conversion factor that accounts for competitive inhibition and the concentration of ATP used in the assay relative to its apparent Michaelis constant (Km,app).
As for `O=C(Nc1cnn(Cc2cccc(F)c2)c1)c1n[nH]c2ccccc12` [Example 63, N-(1-(3-fluorobenz)-1H-pyrazol-4-yl)-1H-indazole-3-carboxamide], the pKi is 7.00 to 9.00.
Same read-out and setting: the result for `COc1ccccc1Cn1cc(NC(=O)c2n[nH]c3ccccc23)cn1` [Example 64, N-(1-(2-methoxybenzyl)-1H-pyrazol-4-yl)-1H-indazole-3-carboxamide] reads less than 7.00.
With `O=C(Nc1cnn(Cc2ccccc2F)c1)c1n[nH]c2ccccc12` [Example 65, N-(1-(2-fluorobenzyl)-1H-pyrazol-4-yl)-1H-indazole-3-carboxamide], the pKi is 7.00 to 9.00.
Compound `COc1ccc(Cn2cc(NC(=O)c3n[nH]c4ccccc34)cn2)cc1` [Example 66, N-(1-(4-methoxybenzyl)-1H-pyrazol-4-yl)-1H-indazole-3-carboxamide] gave a negative-log Ki (pKi) of 7.00 to 9.00.
As to `COc1cccc(Cn2cc(NC(=O)c3n[nH]c4ccccc34)cn2)c1` [Example 67, N-(1-(3-methoxybenzyl)-1H-pyrazol-4-yl)-1H-indazole-3-carboxamide], the pKi is 7.00 to 9.00.
As for `O=C(Nc1cnn(Cc2ccc(F)c(F)c2)c1)c1n[nH]c2ccccc12` [Example 68, N-(1-(3,4-difluorobenzyl)-1H-pyrazol-4-yl)-1H-indazole-3-carboxamide], the pKi is 7.00 to 9.00.
In turn, `O=C(Nc1cnn(Cc2cc(F)ccc2F)c1)c1n[nH]c2ccccc12` [Example 69, N-(1-(2,5-difluorobenzyl)-1H-pyrazol-4-yl)-1H-indazole-3-carboxamide] gave a pKi of 7.00 to 9.00.
For `COc1cc(Cn2cc(NC(=O)c3n[nH]c4ccccc34)cn2)cc(OC)c1` [Example 70, N-(1-(3,5-dimethoxybenzyl)-1H-pyrazol-4-yl)-1H-indazole-3-carboxamide], the pKi is 7.00 to 9.00.
In turn, `O=C(Nc1cnn(Cc2ccc(F)cc2F)c1)c1n[nH]c2ccccc12` [Example 71, N-(1-(2,4-difluorobenzyl)-1H-pyrazol-4-yl)-1H-indazole-3-carboxamide] gave a pKi of 7.00 to 9.00.
Compound `O=C(Nc1cnn(Cc2ccc(OC(F)(F)F)cc2)c1)c1n[nH]c2ccccc12` [Example 72, N-(1-(4-(trifluoromethoxy)benzyl)-1H-pyrazol-4-yl)-1H-indazole-3-carboxamide] gave a pKi of less than 7.00.
On the same count and under the same terms, next, `O=C(Nc1cnn(Cc2ccc(Cl)cc2Cl)c1)c1n[nH]c2ccccc12` [Example 73, N-(1-(2,4-dichlorobenzyl)-1H-pyrazol-4-yl)-1H-indazole-3-carboxamide]: less than 7.00; `O=C(Nc1cnn(CCCN2CCCC(O)C2)c1)c1n[nH]c2ccccc12` (centres unmarked) [Example 74, N-(1-(3-(3-Hydroxypiperidin-1-yl)propyl)-1H-pyrazol-4-yl)-1H-indazole-3-carboxamide]: less than 7.00; `O=C(Nc1cnn(CCN2CCCC(O)C2)c1)c1n[nH]c2ccccc12` (centres unmarked) [Example 75, N-(1-(2-(3-Hydroxypiperidin-1-yl)ethyl)-1H-pyrazol-4-yl)-1H-indazole-3-carboxamide]: less than 7.00.
The compound `O=C(Nc1cnn(CCCCN2CCCC(O)C2)c1)c1n[nH]c2ccccc12` (centres unmarked) [Example 76, N-(1-(4-(3-Hydroxypiperidin-1-yl)butyl)-1H-pyrazol-4-yl)-1H-indazole-3-carboxamide] showed a pKi of less than 7.00.
The compound `CC(C)(c1cccc(C#N)c1)n1cc(NC(=O)c2n[nH]c3ccccc23)cn1` [Example 77, N-(1-(2-(3-Cyanophenyl)propan-2-yl)-1H-pyrazol-4-yl)-1H-indazole-3-carboxamide] showed a pKi of less than 7.00.
The compound `N#Cc1cccc(Cn2cc(NC(=O)c3n[nH]c4ccc(-c5ccccc5)cc34)cn2)c1` [Example 79, N-(1-(3-Cyanobenzyl)-1H-pyrazol-4-yl)-5-phenyl-1H-indazole-3-carboxamide] showed a pKi of less than 7.00.
The compound `N#Cc1cccc(Cn2cc(NC(=O)c3n[nH]c4ccc(-c5cc[nH]n5)cc34)cn2)c1` [Example 80, N-(1-(3-Cyanobenzyl)-1H-pyrazol-4-yl)-5-(1H-pyrazol-3-yl)-1H-indazole-3-carboxamide] gave a pKi of 7.00 to 9.00.
Same read-out and setting: the result for `N#Cc1cccc(Cn2cc(NC(=O)c3n[nH]c4ccc(-c5cn[nH]c5)cc34)cn2)c1` [Example 81, N-(1-(3-Cyanobenzyl)-1H-pyrazol-4-yl)-5-(1H-pyrazol-4-yl)-1H-indazole-3-carboxamide] reads 7.00 to 9.00; that for `N#Cc1cccc(Cn2cc(NC(=O)c3n[nH]c4ccc(CCO)cc34)cn2)c1` [Example 82], 7.00 to 9.00; that for `CCn1cc(NC(=O)c2n[nH]c3cc(-c4cn[nH]c4)ccc23)cn1` [Example 83, N-(1-ethyl-1H-pyrazol-4-yl)-6-(1H-pyrazol-4-yl)-1H-indazole-3-carboxamide], 7.00 to 9.00.
`N#Cc1cncc(-c2ccc3c(C(=O)Nc4cnn(Cc5ccccc5)c4)n[nH]c3c2)c1` [Example 84, N-(1-benzyl-1H-pyrazol-4-yl)-6-(5-cyanopyridin-3-yl)-1H-indazole-3-carboxamide] had a pKi of 7.00 to 9.00.
Still for that read-out and setting: next, `COc1cncc(-c2ccc3c(C(=O)Nc4cnn(Cc5ccccc5)c4)n[nH]c3c2)c1` [Example 85, N-(1-benzyl-1H-pyrazol-4-yl)-6-(5-methoxypyridin-3-yl)-1H-indazole-3-carboxamide]: 7.00 to 9.00.
Same read-out and setting: the result for `N#Cc1cccc(Cn2cc(NC(=O)c3n[nH]c4cc(N5CCCC5)ccc34)cn2)c1` [Example 86, N-(1-(3-cyanobenzyl)-1H-pyrazol-4-yl)-6-(pyrrolidin-1-yl)-1H-indazole-3-carboxamide] reads 7.00 to 9.00; that for `Cn1cnc(-c2ccc3c(C(=O)Nc4cnn(Cc5ccccc5)c4)n[nH]c3c2)c1` [Example 87, N-(1-benzyl-1H-pyrazol-4-yl)-6-(1-methyl-1H-imidazol-4-yl)-1H-indazole-3-carboxamide], 7.00 to 9.00.
The compound `N#Cc1cccc(Cn2cc(NC(=O)c3n[nH]c4cc(N5CCC(O)C5)ccc34)cn2)c1` (centres unmarked) [Example 88, N-(1-(3-cyanobenzyl)-1H-pyrazol-4-yl)-6-(3-hydroxypyrrolidin-1-yl)-1H-indazole-3-carboxamide] had a pKi of 7.00 to 9.00.
`CC(C)(O)CNCc1cccc(Cn2cc(NC(=O)c3n[nH]c4ccccc34)cn2)c1` [Example 90, N-(1-(3-((2-hydroxy-2-methylpropylamino)methyl)benzyl)-1H-pyrazol-4-yl)-1H-indazole-3-carboxamide] showed a pKi of 7.00 to 9.00.
The same measure, in the same setting: next, `O=C(Nc1cnn(Cc2cccc(CN3CCC3)c2)c1)c1n[nH]c2ccccc12` [Example 91, N-(1-(3-(azetidin-1-ylmethyl)benzyl)-1H-pyrazol-4-yl)-1H-indazole-3-carboxamide]: 7.00 to 9.00; `O=C(Nc1cnn(Cc2cccc(CNCC(F)F)c2)c1)c1n[nH]c2ccccc12` [Example 92, N-(1-(3-((2,2-difluoroethylamino)methyl)benzyl)-1H-pyrazol-4-yl)-1H-indazole-3-carboxamide]: 7.00 to 9.00; `CC(O)CNCc1cccc(Cn2cc(NC(=O)c3n[nH]c4ccccc34)cn2)c1` (centres unmarked) [Example 93, N-(1-(3-((2-hydroxypropylamino)methyl)benzyl)-1H-pyrazol-4-yl)-1H-indazole-3-carboxamide]: 7.00 to 9.00.

Staying with this experiment, now noted: Table 3, specific values for certain examples.
`COc1ccc(Cn2cc(NC(=O)c3n[nH]c4ccccc34)cn2)cc1` [Example 66, N-(1-(4-methoxybenzyl)-1H-pyrazol-4-yl)-1H-indazole-3-carboxamide]: the pKi is 7.42.
Regarding `O=C(Nc1cnn(CCN2CCCC(O)C2)c1)c1n[nH]c2ccccc12` (centres unmarked) [Example 75, N-(1-(2-(3-Hydroxypiperidin-1-yl)ethyl)-1H-pyrazol-4-yl)-1H-indazole-3-carboxamide], the pKi was 6.37.
Turning to `CC(C)(c1cccc(C#N)c1)n1cc(NC(=O)c2n[nH]c3ccccc23)cn1` [Example 77, N-(1-(2-(3-Cyanophenyl)propan-2-yl)-1H-pyrazol-4-yl)-1H-indazole-3-carboxamide], the pKi was 6.51. This pKi and that of the compound before are within 0.2 log units of each other.

What is called pKi is the negative decadic logarithm of the Ki, by convention in mol/L.
